Data: patent publication US20210346425A1, “BOTANICAL FILM-FORMING ACNE COMPOSITIONS” (priority 2018, published 2021)

How the values were obtained:
[1] = Zone of inhibition test of salicylic acid and botanicals in FGZ base; assay type: cell-based; settings: ingredients in FGZ base; test organism not given
Experimental: Various botanicals, salicylic acid and combinations were mixed in FGZ gel and antibacterial efficacy was evaluated.
Table 1: Antibacterial Activity of Salicylic Acid and Botanicals in FGZ Base (Zone of Inhibition Test)

S. aureus = experiment: Rapid kill (15 seconds) suspension test, ASTM E2783-11; assay type: cell-based; settings: 15 seconds contact, ingredient in FGZ gel, log 10 reduction of 3.0 or higher counts as effective
Experimental: Table 2: Antibacterial Activity (Rapidity of Kill Test Organism S. aureus)
Rapid kill (15 seconds) test tube method described in ASTM-E2783-1198751-1 (suspension test).
In vitro rapid-kill test was carried out according to ASTM E2783-11; 10^8 CFU mL^−1 microbial cultures were prepared in a TSA media in order to determine the antimicrobial activity of acne formulations. 0.9 mL acne formulation was kept in contact with 0.1 mL microbial cultures for 15 seconds and subsequently neutralized using agent DE. PBS was used as a control.

SMILES	Zone of inhibition (mm) [1]	Log reductrion from control growth (S. aureus)
O=C(O)c1ccccc1O [Salicylic acid 2%, Salicylic acid]	1 mm	2.1
[H]/N=C(\N/C(=N/[H])NCCCCCCNC(=N)NC(=N)Nc1ccc(Cl)cc1)Nc1ccc(Cl)cc1 [chlorhexidine gluconate]		0.2
